Source: ChEMBL document CHEMBL5465560, “Selectivity Literature for EUbOPEN Chemogenomic Library” (2024)
Each block holds one molecule with its values, some of them ahead of it.

Tests used:
[1] = molecular target: Platelet-derived growth factor receptor alpha (Homo sapiens, UniProt P16234); experiment: Selectivity interaction (Ambit KINOMEscan and KiNATiv profiling in Jurkat cells) EUB0000090b PDGFRA; assay type: cell-based; conditions: at 1 µM
[2] = molecular target: Platelet-derived growth factor receptor beta (Homo sapiens, UniProt P09619); experiment: Selectivity interaction (Ambit KINOMEscan and KiNATiv profiling in Jurkat cells) EUB0000090b PDGFRB; assay type: cell-based; conditions: at 1 µM
[3] = molecular target: Activin receptor type-2A (Homo sapiens) (UniProt P27037); experiment: Selectivity interaction (KinomeScan (DiscoverX)) EUB0000655a ACVR2A; conditions: at 10 µM
[4] = molecular target: T1, Tyrosine-protein kinase Mer (Homo sapiens) (UniProt Q12866); experiment: Selectivity interaction (KinomeScan (DiscoverX)) EUB0001079a MERTK; conditions: at 1 µM
T1 sequence (whole entry): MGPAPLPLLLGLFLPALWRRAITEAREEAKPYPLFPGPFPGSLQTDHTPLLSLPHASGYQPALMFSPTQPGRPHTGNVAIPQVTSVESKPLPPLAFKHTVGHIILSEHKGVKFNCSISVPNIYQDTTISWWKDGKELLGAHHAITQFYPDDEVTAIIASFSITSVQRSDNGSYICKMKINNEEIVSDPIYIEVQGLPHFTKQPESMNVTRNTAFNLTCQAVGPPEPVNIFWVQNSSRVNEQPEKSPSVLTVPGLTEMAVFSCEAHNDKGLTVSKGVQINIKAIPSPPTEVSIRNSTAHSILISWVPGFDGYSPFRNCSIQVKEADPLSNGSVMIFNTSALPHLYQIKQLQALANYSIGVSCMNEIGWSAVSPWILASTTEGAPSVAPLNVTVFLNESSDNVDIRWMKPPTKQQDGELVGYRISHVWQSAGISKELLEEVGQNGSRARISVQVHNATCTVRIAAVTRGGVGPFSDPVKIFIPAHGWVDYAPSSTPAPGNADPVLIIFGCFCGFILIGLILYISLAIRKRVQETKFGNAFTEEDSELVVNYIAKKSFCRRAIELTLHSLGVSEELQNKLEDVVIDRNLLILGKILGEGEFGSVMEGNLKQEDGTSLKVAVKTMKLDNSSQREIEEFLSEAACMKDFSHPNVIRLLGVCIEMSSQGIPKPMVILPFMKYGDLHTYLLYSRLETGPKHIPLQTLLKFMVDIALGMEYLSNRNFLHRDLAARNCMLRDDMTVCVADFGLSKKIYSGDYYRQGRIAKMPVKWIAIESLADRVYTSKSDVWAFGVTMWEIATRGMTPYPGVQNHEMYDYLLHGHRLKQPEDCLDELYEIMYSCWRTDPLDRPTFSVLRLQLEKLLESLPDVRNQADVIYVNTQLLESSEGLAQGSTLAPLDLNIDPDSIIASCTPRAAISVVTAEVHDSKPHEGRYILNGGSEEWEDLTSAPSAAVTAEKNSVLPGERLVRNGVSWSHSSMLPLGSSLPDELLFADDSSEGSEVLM

[5] = molecular target: Eukaryotic translation initiation factor 2-alpha kinase 1 (Homo sapiens) (UniProt Q9BQI3); experiment: Selectivity interaction (KinomeScan (DiscoverX)) EUB0000607a EIF2AK1; conditions: at 10 µM
Ephrin type-A receptor 4 = Ephrin type-A receptor 4 (Homo sapiens, UniProt P54764); experiment: Selectivity interaction (SelectScreen profiling (Invitrogen)) EUB0000607a EPHA4; conditions: at 2 µM
[6] = molecular target: Myosin light chain kinase, smooth muscle (Homo sapiens, UniProt Q15746); experiment: Selectivity interaction (ActivX KiNativ screen (ex vivo kinase selectivity in human PBMCs)) EUB0001619a MYLK; assay type: cell-based; conditions: PBMC, at 1 µM
[7] = system: T2, Receptor-type tyrosine-protein kinase FLT3 (Homo sapiens), P36888 [N841I]; conditions: at 10 µM
T2 sequence (whole entry): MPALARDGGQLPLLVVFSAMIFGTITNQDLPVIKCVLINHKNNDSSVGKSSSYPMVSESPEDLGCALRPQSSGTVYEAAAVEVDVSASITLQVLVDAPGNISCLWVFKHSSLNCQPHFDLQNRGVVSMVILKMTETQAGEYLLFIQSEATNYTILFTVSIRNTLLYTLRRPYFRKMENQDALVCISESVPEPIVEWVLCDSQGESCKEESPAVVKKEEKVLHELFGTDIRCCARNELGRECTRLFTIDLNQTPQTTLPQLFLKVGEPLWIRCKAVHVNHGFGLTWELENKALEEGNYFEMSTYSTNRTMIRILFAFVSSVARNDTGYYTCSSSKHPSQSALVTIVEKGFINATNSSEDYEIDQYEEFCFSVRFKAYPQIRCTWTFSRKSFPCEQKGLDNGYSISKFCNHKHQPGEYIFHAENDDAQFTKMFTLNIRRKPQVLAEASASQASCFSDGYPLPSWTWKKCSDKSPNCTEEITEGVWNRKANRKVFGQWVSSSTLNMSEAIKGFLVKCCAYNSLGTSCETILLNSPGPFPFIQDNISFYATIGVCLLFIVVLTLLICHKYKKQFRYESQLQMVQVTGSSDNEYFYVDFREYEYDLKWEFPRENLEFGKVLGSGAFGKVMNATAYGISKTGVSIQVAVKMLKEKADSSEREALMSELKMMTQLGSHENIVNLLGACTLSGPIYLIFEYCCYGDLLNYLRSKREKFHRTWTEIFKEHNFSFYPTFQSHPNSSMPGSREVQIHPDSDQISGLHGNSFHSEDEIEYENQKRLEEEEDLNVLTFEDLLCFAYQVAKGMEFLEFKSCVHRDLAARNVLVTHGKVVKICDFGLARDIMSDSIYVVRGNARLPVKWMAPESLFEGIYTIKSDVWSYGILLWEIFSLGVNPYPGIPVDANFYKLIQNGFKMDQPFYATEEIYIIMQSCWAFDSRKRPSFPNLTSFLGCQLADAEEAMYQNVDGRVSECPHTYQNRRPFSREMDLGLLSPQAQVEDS

[8] = molecular target: Mitogen-activated protein kinase 1 (Homo sapiens, UniProt P28482); experiment: Selectivity interaction (ProQinase) EUB0000171b MAPK1
[9] = molecular target: Ribosomal protein S6 kinase beta-1 (Homo sapiens, UniProt P23443); experiment: Selectivity interaction (KinomeScan (DiscoverX)) EUB0001049a RPS6KB1; conditions: at 1 µM
[10] = molecular target: Phosphatidylinositol 4-kinase alpha (Homo sapiens, UniProt P42356); experiment: Selectivity interaction (Kinase panel (radiometric assay)) EUB0000877a PI4KA
[11] = molecular target: Serine/threonine-protein kinase NIM1 (Homo sapiens, UniProt Q8IY84); experiment: Selectivity interaction (KinomeScan (DiscoverX)) EUB0000666a NIM1K; conditions: at 10 µM
[12] = molecular target: Serine/threonine-protein kinase PAK 1 (Homo sapiens) (UniProt Q13153); experiment: Selectivity interaction (KinomeScan (DiscoverX)) EUB0000666a PAK1; conditions: at 10 µM
[13] = molecular target: Cyclin-dependent kinase 9 (Homo sapiens, UniProt P50750); experiment: Selectivity interaction (KinomeScan (DiscoverX)) EUB0000092b CDK9; conditions: at 10 µM
[14] = molecular target: Homeodomain-interacting protein kinase 2 (Homo sapiens, UniProt Q9H2X6); experiment: Selectivity interaction (Kinase panel (Z-LYTE Assay)) EUB0001632a HIPK2; conditions: at 10 µM

Sequence of Mitogen-activated protein kinase 1 (P28482 whole entry): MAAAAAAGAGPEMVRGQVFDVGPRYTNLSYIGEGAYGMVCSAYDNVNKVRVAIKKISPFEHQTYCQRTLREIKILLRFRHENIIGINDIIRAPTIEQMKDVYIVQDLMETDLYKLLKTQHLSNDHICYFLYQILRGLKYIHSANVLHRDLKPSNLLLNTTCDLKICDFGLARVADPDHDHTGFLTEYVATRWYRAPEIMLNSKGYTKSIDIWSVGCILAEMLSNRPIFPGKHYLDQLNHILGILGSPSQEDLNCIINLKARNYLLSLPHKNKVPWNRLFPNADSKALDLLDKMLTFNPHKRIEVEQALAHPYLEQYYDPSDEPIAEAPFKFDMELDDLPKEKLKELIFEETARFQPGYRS
Sequence of Eukaryotic translation initiation factor 2-alpha kinase 1 (Homo sapiens) (Q9BQI3 whole entry): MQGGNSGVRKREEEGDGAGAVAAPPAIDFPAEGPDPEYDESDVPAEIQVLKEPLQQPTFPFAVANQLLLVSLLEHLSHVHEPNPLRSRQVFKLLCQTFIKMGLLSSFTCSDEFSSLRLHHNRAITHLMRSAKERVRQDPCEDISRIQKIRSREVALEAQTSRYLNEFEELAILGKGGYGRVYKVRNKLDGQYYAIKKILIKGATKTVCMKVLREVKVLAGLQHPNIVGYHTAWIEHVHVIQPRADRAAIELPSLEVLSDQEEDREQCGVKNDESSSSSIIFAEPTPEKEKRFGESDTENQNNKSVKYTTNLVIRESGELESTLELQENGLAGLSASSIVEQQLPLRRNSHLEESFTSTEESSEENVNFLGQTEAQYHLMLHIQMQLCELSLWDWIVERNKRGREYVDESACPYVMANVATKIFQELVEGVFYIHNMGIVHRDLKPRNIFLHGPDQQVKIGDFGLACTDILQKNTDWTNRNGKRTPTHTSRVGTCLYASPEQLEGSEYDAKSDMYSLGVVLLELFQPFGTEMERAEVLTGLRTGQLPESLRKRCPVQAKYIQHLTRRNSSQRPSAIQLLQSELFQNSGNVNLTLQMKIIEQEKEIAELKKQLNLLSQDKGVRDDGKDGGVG
Sequence of Cyclin-dependent kinase 9 (P50750 whole entry): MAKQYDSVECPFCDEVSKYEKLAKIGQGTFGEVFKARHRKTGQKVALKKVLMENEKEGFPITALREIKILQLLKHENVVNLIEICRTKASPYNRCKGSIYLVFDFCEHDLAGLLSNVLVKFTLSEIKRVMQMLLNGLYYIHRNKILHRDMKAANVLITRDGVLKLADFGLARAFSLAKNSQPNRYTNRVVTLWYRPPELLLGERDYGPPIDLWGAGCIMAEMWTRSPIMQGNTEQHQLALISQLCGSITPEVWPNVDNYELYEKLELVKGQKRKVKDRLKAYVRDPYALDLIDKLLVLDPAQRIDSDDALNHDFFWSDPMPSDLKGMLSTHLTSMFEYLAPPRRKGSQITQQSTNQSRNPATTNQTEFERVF
Sequence of Ephrin type-A receptor 4 (P54764 whole entry): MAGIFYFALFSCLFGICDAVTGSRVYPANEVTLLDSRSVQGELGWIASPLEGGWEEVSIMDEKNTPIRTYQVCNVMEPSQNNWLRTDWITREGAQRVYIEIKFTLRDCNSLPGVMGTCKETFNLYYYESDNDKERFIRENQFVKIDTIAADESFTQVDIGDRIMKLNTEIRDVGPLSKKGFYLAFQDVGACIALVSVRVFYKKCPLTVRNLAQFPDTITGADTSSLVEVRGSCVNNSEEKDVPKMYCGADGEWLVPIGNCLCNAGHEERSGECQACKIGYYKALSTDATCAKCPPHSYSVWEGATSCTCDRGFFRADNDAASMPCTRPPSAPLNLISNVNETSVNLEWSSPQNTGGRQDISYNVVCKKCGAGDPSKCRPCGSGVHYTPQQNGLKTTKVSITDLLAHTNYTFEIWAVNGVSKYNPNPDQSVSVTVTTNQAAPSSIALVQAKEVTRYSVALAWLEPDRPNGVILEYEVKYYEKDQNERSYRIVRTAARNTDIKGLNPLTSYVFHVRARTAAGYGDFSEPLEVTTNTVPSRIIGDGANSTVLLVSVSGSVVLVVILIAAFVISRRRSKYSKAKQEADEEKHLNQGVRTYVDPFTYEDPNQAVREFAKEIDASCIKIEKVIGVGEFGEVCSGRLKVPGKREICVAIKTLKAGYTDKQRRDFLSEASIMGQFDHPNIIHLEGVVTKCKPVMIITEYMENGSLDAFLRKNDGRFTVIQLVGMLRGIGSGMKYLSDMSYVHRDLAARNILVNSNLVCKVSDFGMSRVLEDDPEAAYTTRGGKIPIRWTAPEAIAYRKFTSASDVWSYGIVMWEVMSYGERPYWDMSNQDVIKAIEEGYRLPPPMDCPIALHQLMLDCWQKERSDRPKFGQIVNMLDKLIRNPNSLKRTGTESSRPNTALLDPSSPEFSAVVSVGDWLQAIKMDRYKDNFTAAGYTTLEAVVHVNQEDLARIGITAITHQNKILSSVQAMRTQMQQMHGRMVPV
Sequence of Phosphatidylinositol 4-kinase alpha (P42356 whole entry): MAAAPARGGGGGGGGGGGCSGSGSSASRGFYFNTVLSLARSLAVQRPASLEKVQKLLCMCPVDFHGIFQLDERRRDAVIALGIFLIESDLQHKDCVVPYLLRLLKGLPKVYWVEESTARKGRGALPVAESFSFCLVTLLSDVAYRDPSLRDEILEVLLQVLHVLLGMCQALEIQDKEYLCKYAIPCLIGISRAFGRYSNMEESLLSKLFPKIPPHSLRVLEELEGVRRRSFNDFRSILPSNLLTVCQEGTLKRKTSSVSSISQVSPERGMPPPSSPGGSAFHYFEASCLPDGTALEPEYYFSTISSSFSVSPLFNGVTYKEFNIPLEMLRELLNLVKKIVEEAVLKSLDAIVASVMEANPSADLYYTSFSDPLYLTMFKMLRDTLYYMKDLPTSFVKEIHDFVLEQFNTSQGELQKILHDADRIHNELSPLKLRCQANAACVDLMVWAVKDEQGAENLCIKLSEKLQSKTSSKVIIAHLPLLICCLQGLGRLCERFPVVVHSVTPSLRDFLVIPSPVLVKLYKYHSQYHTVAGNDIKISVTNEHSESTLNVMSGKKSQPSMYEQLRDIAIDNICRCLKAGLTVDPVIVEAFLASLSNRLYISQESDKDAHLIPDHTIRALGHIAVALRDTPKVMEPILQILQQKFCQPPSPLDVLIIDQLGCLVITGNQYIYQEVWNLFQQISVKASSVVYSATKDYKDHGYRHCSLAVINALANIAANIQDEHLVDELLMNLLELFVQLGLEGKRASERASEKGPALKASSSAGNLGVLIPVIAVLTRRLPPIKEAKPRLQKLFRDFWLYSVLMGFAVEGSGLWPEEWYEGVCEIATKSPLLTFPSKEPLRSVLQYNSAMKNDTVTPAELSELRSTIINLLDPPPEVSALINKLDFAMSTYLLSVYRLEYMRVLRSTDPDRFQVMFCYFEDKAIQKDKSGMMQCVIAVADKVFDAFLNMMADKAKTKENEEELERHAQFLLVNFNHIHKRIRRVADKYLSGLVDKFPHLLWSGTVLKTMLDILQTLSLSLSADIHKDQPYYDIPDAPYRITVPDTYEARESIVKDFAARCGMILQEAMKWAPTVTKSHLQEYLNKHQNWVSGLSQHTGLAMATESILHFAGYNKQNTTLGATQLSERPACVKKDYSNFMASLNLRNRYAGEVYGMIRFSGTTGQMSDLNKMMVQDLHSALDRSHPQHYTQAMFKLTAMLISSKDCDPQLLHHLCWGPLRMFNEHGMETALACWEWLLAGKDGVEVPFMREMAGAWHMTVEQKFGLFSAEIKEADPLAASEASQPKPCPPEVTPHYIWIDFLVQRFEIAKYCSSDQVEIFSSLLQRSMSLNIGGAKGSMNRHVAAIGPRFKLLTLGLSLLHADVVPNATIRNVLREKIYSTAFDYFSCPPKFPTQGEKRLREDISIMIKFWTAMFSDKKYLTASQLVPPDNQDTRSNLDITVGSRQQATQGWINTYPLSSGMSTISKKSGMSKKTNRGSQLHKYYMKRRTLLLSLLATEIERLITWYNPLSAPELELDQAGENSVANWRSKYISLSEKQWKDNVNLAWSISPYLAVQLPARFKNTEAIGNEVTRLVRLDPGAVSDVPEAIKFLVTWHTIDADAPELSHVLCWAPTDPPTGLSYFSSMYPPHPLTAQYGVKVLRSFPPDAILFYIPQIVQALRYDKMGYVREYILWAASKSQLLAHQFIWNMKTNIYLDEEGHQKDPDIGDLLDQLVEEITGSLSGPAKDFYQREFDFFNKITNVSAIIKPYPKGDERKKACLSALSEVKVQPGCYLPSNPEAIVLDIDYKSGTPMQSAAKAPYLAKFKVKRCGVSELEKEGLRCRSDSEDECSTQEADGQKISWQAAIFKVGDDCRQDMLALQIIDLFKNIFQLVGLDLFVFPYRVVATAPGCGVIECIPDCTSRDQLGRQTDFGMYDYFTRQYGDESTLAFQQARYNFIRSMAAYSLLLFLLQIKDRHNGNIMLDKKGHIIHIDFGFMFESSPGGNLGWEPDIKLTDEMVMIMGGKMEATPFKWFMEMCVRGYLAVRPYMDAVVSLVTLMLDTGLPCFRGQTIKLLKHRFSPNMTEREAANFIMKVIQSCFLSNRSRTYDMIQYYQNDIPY
Sequence of Ribosomal protein S6 kinase beta-1 (P23443 whole entry, looked up): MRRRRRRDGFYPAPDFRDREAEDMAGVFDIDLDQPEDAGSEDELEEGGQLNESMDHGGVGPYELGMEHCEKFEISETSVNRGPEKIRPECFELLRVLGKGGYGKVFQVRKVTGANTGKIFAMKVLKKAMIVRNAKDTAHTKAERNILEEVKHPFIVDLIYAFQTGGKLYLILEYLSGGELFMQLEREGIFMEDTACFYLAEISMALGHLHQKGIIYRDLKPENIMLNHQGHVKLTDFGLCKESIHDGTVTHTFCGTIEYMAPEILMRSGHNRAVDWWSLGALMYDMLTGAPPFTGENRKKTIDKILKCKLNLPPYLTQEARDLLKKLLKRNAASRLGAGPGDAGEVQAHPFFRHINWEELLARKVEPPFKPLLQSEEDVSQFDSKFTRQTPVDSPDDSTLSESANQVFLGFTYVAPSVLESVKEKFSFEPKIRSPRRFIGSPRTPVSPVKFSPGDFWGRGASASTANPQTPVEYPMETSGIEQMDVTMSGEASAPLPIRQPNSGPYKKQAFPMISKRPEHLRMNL

Compound: CN(C)C/C=C/C(=O)Nc1ccc(C(=O)N2CCCC(Nc3ncc(Cl)c(-c4c[nH]c5ccccc45)n3)C2)cc1 (stereo unspecified)
% of control [1]: 91%
% of control [2]: 76%

Compound: CN(C)CCOc1ccc(-c2nc(-c3ccncc3)c(-c3ccc4c(c3)CC/C4=N\O)[nH]2)cc1
% of control [3]: 100%

Compound: Nc1cnc(N2CCc3cc(S(=O)(=O)Nc4c(F)cc(Cl)cc4F)cc(N4CCCC4=O)c32)nc1 [TP-020n]
% of control [4]: 100%

Compound: CNC(=O)Nc1ccc(-c2nc(N3CC4CCC(C3)O4)c3cnn(C4CCC5(CC4)OCCO5)c3n2)cc1
% of control [5]: 100%
% of inhibition (Ephrin type-A receptor 4): -1%

Compound: N#Cc1cccc(-c2c[nH]c3ncnc(N4CCOCC4)c23)c1
% of inhibition [6]: 16%

Compound: Cc1cc([C@@H](C)Nc2ccccc2C(=O)O)c2nc(N3CCOCC3)cc(=O)n2c1 [AZD-6482]
% of control [7]: 44%

% of control ([8]; at 1 µM): 96%
% of control ([8]; at 5 µM): 100%
Compound: C=CC(=O)Nc1cccc(C(=O)Nc2ccc(Nc3cc(-c4[nH]c(SC)nc4C)ccn3)cc2)c1

Compound: COc1cc(Nc2nc(C)cc(-c3cnn4nc(OC)ccc34)n2)cc(C(F)(F)F)c1
% of control [9]: 87%

IC50 [10]: > 9.1 µM
Compound: CCC(=O)N1CC[C@H](Nc2ncnc3c2CN(c2cnc(OC)c(C(F)(F)F)c2)CC3)C1 [LENIOLISIB]

Compound: O=C(NOC[C@H](O)CO)c1ccc(F)c(F)c1Nc1ccc(I)cc1F
% of control [11]: 100%
% of control [12]: 100%

Compound: CCC(=O)N1CCN(c2ccc(-n3c(=O)ccc4cnc5ccc(-c6cnc7ccccc7c6)cc5c43)cc2C(F)(F)F)CC1
% of control [13]: 94%

% of control [14]: 5.72%
Compound: Cn1cc(-n2cnc3c(NCc4nc5cc(Cl)c(Cl)cc5[nH]4)nc(N4CCOCC4)nc32)cn1
